The text below walks through data of patent US20220232861A1, “ZINC COMPOUNDS IN FOOD IMMERSION APPLICATIONS” (SAFE FOODS CORPORATION, priority 2019, published 2022).

Read-outs that look alike come from different tables or passages of the source.

Assay [1] relates to Aerobic plate count. As to conditions: Example 3; for Aerobic plate count: drums dipped 10 s, drip 60 s, control 5.2. Here is the method:
(§1) Drums (poultry) were purchased from a local retailer, frozen, and thawed for testing. The parts were allowed to sit at room temperature for 24 hours prior to testing. As a control, five drums (Sample IDs 1-5) were individually, aseptically rinsed (100 ml of rinsate).
(§2) Next, approximately 630 mL of 3,000 ppm zinc sulfate was added and manually agitated in 1 gallon of tap water in a 3-gallon bucket to yield a 500 ppm zinc sulfate solution. Five drums (Sample IDs 6-10) were fully submerged in the zinc sulfate solution, manually agitated for 10 seconds, then removed and allowed to drip for 60 seconds. The drums were individually, aseptically rinsed.
(§3) Next, 1 gallon of water and 4 ml of sulfuric acid were added to a bucket to yield a solution having a pH of 1.2. Five drums (Sample IDs 11-15) were fully submerged in the sulfuric acid solution, manually agitated for 10 seconds, then removed and allowed to drip for 60 seconds. The drums were individually, aseptically rinsed.
(§4) Lastly, 1 gallon of water and 630 mL of 3,000 ppm zinc sulfate/sulfuric acid solution were added to a bucket to yield a 500 ppm zinc sulfate/sulfuric acid solution having a pH of 1.2. Five drums (Sample IDs 16-20) were fully submerged in the zinc sulfate/sulfuric acid solution, manually agitated for 10 seconds, then removed and allowed to drip for 60 seconds. The drums were individually, aseptically rinsed.
(§5) All rinsate samples collected were placed in a refrigerator overnight. The samples were analyzed for 3M Aerobic Plate Count (APC) Petrifilm™ (AOAC Official Method 990.12), E. coli/Coliform (EC/CO) Petrifilm™ (AOAC Official Method 998.08), and Enterobacteriaceae (EB) Petrifilm™ (AOAC Official Method 2003.01). The samples were recorded as counts, which were then converted to log10 CFU/mL for statistical analysis of the means.

Assay [2] relates to Enterobacteriaceae. To be noted: Example 3; for Enterobacteriaceae: drums dipped 10 s, drip 60 s, control 2.8. The protocol: as §1, §2, §3, §4, §5
The subject of assay [3] is Aerobic plate count. To be noted: Example 4; for Aerobic plate count: drums dipped 10 s, drip 60 s, control 7.9; for APC result versus control, in words: single treatments: 500 ppm zinc sulfate only (samples 6-10) or sulfuric acid pH 1.2 or less.
Method: (§6) All rinsate samples collected were placed in a refrigerator overnight. The samples were analyzed for 3M Aerobic Plate Count (APC) Petrifilm™ (AOAC Official Method 990.12), and Enterobacteriaceae (EB) Petrifilm™ (AOAC Official Method 2003.01). The samples were recorded as counts, which were then converted to log10 CFU/mL for statistical analysis of the means.
Assay [4] has as its system Enterobacteriaceae. As to conditions: Example 4; for Enterobacteriaceae: drums dipped 10 s, drip 60 s, control 4.9; for EB analysis result versus control, in words: single treatments: 500 ppm zinc sulfate only (samples 6-10) or sulfuric acid pH 1.2 or less.
Method: as §6
Assay [5] has as its system Salmonella species. To be noted: ppm = mg of zinc per L of treatment solution; cited from earlier work.
The mark [6] stands for this setting: 1.2 pH sulfuric acid alone, Sample IDs 11-15.
The mark [7] stands for this setting: 500 ppm zinc sulfate alone, Sample IDs 6-10.

Regarding `O=S(=O)(O)O` [sulfuric acid, reference compound], the “Aerobic plate count, reduction from control” value (from here on “Aerobic plate count, reduction”) in assay [1] (setting [6]) is reported as 0.6 log10 CFU/ml; in assay [3] (setting [6]), 0.7 log10 CFU/ml. Moreover, the figures for the Aerobic plate count in assay [1] (setting [6]) and in assay [3] (setting [6]) were 4.6 log10 CFU/ml and 7.2 log10 CFU/ml, respectively. Further, the “Enterobacteriaceae, reduction from control” value (“Enterobacteriaceae, reduction” for short) in assay [2] (setting [6]) turned out to be 1.1 log10 CFU/ml; in assay [4] (setting [6]), 0.5 log10 CFU/ml. Further, the Enterobacteriaceae was determined as 1.7 log10 CFU/ml in assay [2] (setting [6]) and 4.4 log10 CFU/ml in assay [4] (setting [6]). For the same compound, in assay [3], the “APC result versus control, in words” value was “statistically significant reductions”. In addition, the “EB analysis result versus control, in words” value in assay [4] was “statistically significant reductions”.

Consider `O=S(=O)([O-])[O-].[Zn+2]` [zinc sulfate], for which, in assay [1] (setting [7]), the “Aerobic plate count, reduction” value worked out at 0.7 log10 CFU/ml and the Aerobic plate count turned out to be 4.5 log10 CFU/ml. In assay [2] (setting [7]), the “Enterobacteriaceae, reduction” value was 1.1 log10 CFU/ml and the Enterobacteriaceae was determined as 1.7 log10 CFU/ml. In assay [3] (setting [7]), the “Aerobic plate count, reduction” value came to 0.7 log10 CFU/ml and the Aerobic plate count stood at 7.2 log10 CFU/ml. Besides, the “APC result versus control, in words” value in assay [3] was “statistically significant microbial reduction”. Moreover, in assay [4] (setting [7]), the “Enterobacteriaceae, reduction” value worked out at 1.9 log10 CFU/ml and the Enterobacteriaceae was 3.3 log10 CFU/ml. Further, the “EB analysis result versus control, in words” value in assay [4] is “statistically significant microbial reduction”. Besides, the “minimum inhibitory concentration (MIC)” value in assay [5] is listed as “about 0.25 ppm”.
